The record followed here is patent publication US20140094485A1, “SOLID STATE FORMS OF HIV INHIBITOR” (Gilead Sciences, Inc., priority 2012, published 2014).

Data set [1] can be described thus: Tabletability (tablet tensile strength as a function of upper punch compression pressure). The following applies: for Tablet Tensile Strength: immediate release formulation, Form A. It is filed as physicochemical. The text has this: As used herein, the term “tabletability” refers to the capacity of a powdered material to be transformed into a tablet of specified strength under the effect of compaction pressure. Tabletability is the tensile strength as a function of compression force and describes the effectiveness of the applied pressure in increasing the tensile strength of the tablet.

The nature of data set [2]: Thermal gravimetric analysis (TGA). It is filed as physicochemical. The note with it: heating up to 175° C.; FIG. 4. The protocol:
The TGA analysis was conducted on a […]. The thermal gravimetric curve was obtained on a sample heated at 10° C. per minute in a open cup under a nitrogen flow.

Structures are written as SMILES. Counter-ions that a name gives are not always drawn.

For `Cc1nc2ccccc2c(-c2ccc3c4c(ccnc24)CCO3)c1[C@H](OC(C)(C)C)C(=O)O` (atropisomer, axis not shown) [hemi-succinate salt of Compound (I), (2S)-2-tert-butoxy-2-(4-(2,3-dihydropyrano[4,3,2-de]quinolin-7-yl)-2-methylquinolin-3-yl)acetic acid], the “Tablet Tensile Strength” value in data set [1] (Upper Punch Compression Pressure 98 MPa) turned out to be 2.17 MPa; in data set [1] (Upper Punch Compression Pressure 140 MPa), 2.94 MPa; in data set [1] (Upper Punch Compression Pressure 197 MPa) it was 3.18 MPa; in data set [1] (Upper Punch Compression Pressure 253 MPa) it was 3.41 MPa. Besides, the tabletability entry in data set [1] (result in words, FIG. 5) was “improved tabletability”. Besides, the “weight loss during heating” value in data set [2] is listed as “minimal weight loss”.
